Results on one compound are retold here after patent US20020016369A1, “Use of nimesulide for the treatment of psoriasis and psoriatic arhtritis” (priority 2000, published 2002).

This series relates to patients affected by psoriatic arthritis. The method, then: Controlled double-blind clinical trials were carried out on patients 18 to 70 years old affected by psoriatic arthritis showing at least three swollen joints, absence of rheumatoid factor and no other rheumatic conditions.
The patients, who received no previous pharmacological treatment with antirheumatic drugs during the three-month pre-study period, were treated for 4 weeks with Nimesulide (100 to 400 mg/day orally or application of a 3% gel twice a day).
At the end of the treatment period, the following parameters were evaluated:
number of tender and swollen joints
skin symptoms evaluated according to the Psoriasis Area Severity Index (PASI)

Where [1] appears, read: patients 18 to 70 years old, 4 weeks, 100 to 400 mg/day orally or 3% gel twice a day.

Turning to `CS(=O)(=O)Nc1ccc([N+](=O)[O-])cc1Oc1ccccc1` [Nimesulide], under “general statement of finding”, the “action on joint flogosis” value is reported as “beneficial action on joint flogosis” and the “effect on skin lesions” value is on record as “remarkable improvement of such lesions”. Under setting [1], the “clinical efficacy in oligopolyarticular psoriatic arthritis” value is “clinically effective in the treatment of oligopolyarticular psoriatic arthritis in a statistically significant way” and the “toxic or untoward effects (tolerability)” value is given as “no toxic or untoward effect, particularly no gastrointestinal adverse effect”.
